Reference: paper PMC3587680 (European journal of medicinal chemistry, 2012)

Target: T1, recombinant human thymidine kinase 1 (hTK1) (Homo sapiens, UniProt P04183)
T1 sequence (P04183 1-234): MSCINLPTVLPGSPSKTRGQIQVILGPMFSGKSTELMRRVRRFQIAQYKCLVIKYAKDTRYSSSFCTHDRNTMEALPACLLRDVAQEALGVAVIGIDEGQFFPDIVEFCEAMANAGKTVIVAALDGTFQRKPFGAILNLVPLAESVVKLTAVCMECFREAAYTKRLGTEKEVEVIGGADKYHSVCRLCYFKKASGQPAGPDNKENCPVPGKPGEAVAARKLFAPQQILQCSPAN
Assay: not given
Conditions: different hTK1 enzyme preparation, previous study; cited from earlier work

For “3-[5-{2-(2,3-dihydroxyprop-1-yl)-o-carboran-1-yl}pentan-1-yl]thymidine [Compound N5-2OH]”, which rkcat/Km is on record?
Its rkcat/Km is 35.8%.

Target: T1, recombinant human thymidine kinase 1 (hTK1)
Assay: not given
Conditions: PTA conditions

With “3-[2-Imino-2-{3-(closo-1,7-carboranyl)propylamino}ethyl]thymidine [Compound 3f]” as the substance, how does the “Stability under phosphoryl transfer assay conditions (phosphorylated side products, dTMP)” value read?
Its value is “did not appear to produce significant amounts of dTMP as a side product”.

With “3-[2-Imino-2-{2-(closo-1,7-carboranyl)ethylamino}ethyl]thymidine [Compound 3e]” as the substance, how does the “Stability under phosphoryl transfer assay conditions (phosphorylated side products, dTMP)” value read?
Its value is “did not appear to produce significant amounts of dTMP as a side product”.

Test system: intracranial RG2 glioma
Assay: not given
Conditions: rats bearing intracranial RG2 glioma; cited from earlier work

With “3-[5-{2-(2,3-dihydroxyprop-1-yl)-o-carboran-1-yl}pentan-1-yl]thymidine [Compound N5-2OH]” as the substance, how does the “Boron concentration in tumor relative to normal brain” value read?
Its value is 10 fold.

Same assay, conditions: rats bearing intracranial RG2 glioma; normal brain; cited from earlier work

Which “Boron concentration in normal brain” value does the source give for “3-[5-{2-(2,3-dihydroxyprop-1-yl)-o-carboran-1-yl}pentan-1-yl]thymidine [Compound N5-2OH]” here?
The value was 2.6 μg B/g tumor.

Same assay, conditions: rats bearing intracranial RG2 glioma; tumor; cited from earlier work

Which “Boron concentration in tumor” value does the source give for “3-[5-{2-(2,3-dihydroxyprop-1-yl)-o-carboran-1-yl}pentan-1-yl]thymidine [Compound N5-2OH]” here?
The value was 27.6 μg B/g tumor.

Test system: not listed separately
Assay: Thermodynamic solubility in PBS
Assay type: physicochemical
Conditions: PBS pH 7.4, 25 °C

For “3-[2-Imino-2-{3-(closo-1,7-carboranyl)propylamino}ethyl]thymidine [Compound 3f]”, which “Solubility in PBS pH 7.4” value is on record?
The value was greater than 15 mg/mL.

With “3-[1(2)-closo-1,7-Carboranylethyltetrazol-5-ylmethyl]thymidine [9b1/2]” as the substance, how does the “Solubility in PBS pH 7.4” value read?
The value was 133.1 ± 5.2 |g/mL.

Which “Solubility in PBS pH 7.4” value does the source give for “3-[1(2)-closo-1,7-Carboranylethyltetrazol-5-yl]thymidine [11b1/2]” here?
Its value is 42.6 ± 1.0 |g/mL.

For “3-[1(2)-closo-1,7-Carboranylpropyltetrazol-5-yl]thymidine [11c1/2]”, which “Solubility in PBS pH 7.4” value is on record?
Its value is 25.4 - 26.3 |g/mL^2.

With “3-[1(2)-closo-1,7-Carboranylpropyltetrazol-5-ylmethyl]thymidine [9c1/2]” as the substance, how does the “Solubility in PBS pH 7.4” value read?
The value was 84.2 ± 4.1 |g/mL.

For “3-[1(2)-closo-1,7-Carboranylbutyltetrazol-5-ylmethyl]thymidine [9d1/2]”, which “Solubility in PBS pH 7.4” value is on record?
Its value is 33.9 ± 1.4 |g/mL.

For “3-[5-{2-(2,3-dihydroxyprop-1-yl)-o-carboran-1-yl}pentan-1-yl]thymidine [Compound N5-2OH]”, which “Solubility in PBS pH 7.4” value is on record?
Its value is 7-10 |g/mL.

With “3-[2-Imino-2-{2-(closo-1,7-carboranyl)ethylamino}ethyl]thymidine [Compound 3e]” as the substance, how does the “Solubility in PBS pH 7.4” value read?
The value was greater than 19.5 mg/mL.

With “3-[1(2)-closo-1,7-Carboranylbutyltetrazol-5-yl]thymidine [11d1/2]” as the substance, how does the “Solubility in PBS pH 7.4” value read?
Its value is 13.3 - 13.8 |g/mL ^*.

Target: T1, recombinant human thymidine kinase 1 (hTK1)
Assay: not given
Conditions: apparent; varying substrate concentrations, 100 μM ATP; three replicates

With “3-[1(2)-closo-1,7-Carboranylethyltetrazol-5-ylmethyl]thymidine [9b1/2]” as the substance, how does the “kcat ± SD” value read?
The value was 0.44 ± 0.03 S^-1.

For “3-[1(2)-closo-1,7-Carboranylethyltetrazol-5-yl]thymidine [11b1/2]”, which “kcat ± SD” value is on record?
Its value is 0.35 ± 0.03 S^-1.

Which “kcat ± SD” value does the source give for “3-[1(2)-closo-1,7-Carboranylpropyltetrazol-5-yl]thymidine [11c1/2]” here?
The value was 0.37 ± 0.06 S^-1.

Which “kcat ± SD” value does the source give for “3-[1(2)-closo-1,7-Carboranylpropyltetrazol-5-ylmethyl]thymidine [9c1/2]” here?
The value was 0.39 ± 0.04 S^-1.

Which “kcat ± SD” value does the source give for “3-[1(2)-closo-1,7-Carboranylbutyltetrazol-5-ylmethyl]thymidine [9d1/2]” here?
Its value is 0.47 ± 0.04 S^-1.

With “3-[5-{2-(2,3-dihydroxyprop-1-yl)-o-carboran-1-yl}pentan-1-yl]thymidine [Compound N5-2OH]” as the substance, how does the “kcat ± SD” value read?
Its value is 0.42 ± 0.03 S^-1.

With “3-[1(2)-closo-1,7-Carboranylbutyltetrazol-5-yl]thymidine [11d1/2]” as the substance, how does the “kcat ± SD” value read?
The value was 0.32 ± 0.02 S^-1.

Same assay, conditions: current recombinant hTK1 preparation (specific activity 441 nmol/min/mg)

Which “rkcat/Km (kcat/Km relative to that of dThd)” value does the source give for “3-[1(2)-closo-1,7-Carboranylethyltetrazol-5-ylmethyl]thymidine [9b1/2]” here?
Its value is 14.9%.

Which “rkcat/Km (kcat/Km relative to that of dThd)” value does the source give for “3-[1(2)-closo-1,7-Carboranylpropyltetrazol-5-yl]thymidine [11c1/2]” here?
Its value is 5.0%.

Which “rkcat/Km (kcat/Km relative to that of dThd)” value does the source give for “3-[1(2)-closo-1,7-Carboranylpropyltetrazol-5-ylmethyl]thymidine [9c1/2]” here?
The value was 7.6%.

For “3-[1(2)-closo-1,7-Carboranylbutyltetrazol-5-ylmethyl]thymidine [9d1/2]”, which “rkcat/Km (kcat/Km relative to that of dThd)” value is on record?
The value was 8.9%.

With “3-[5-{2-(2,3-dihydroxyprop-1-yl)-o-carboran-1-yl}pentan-1-yl]thymidine [Compound N5-2OH]” as the substance, how does the “rkcat/Km (kcat/Km relative to that of dThd)” value read?
The value was 10.8%.

For “3-[1(2)-closo-1,7-Carboranylbutyltetrazol-5-yl]thymidine [11d1/2]”, which “rkcat/Km (kcat/Km relative to that of dThd)” value is on record?
The value was 19.7%.

Test system: L929 TK (+) cells
Assay: not given
Conditions: cited from earlier work

With “3-[5-{2-(2,3-dihydroxyprop-1-yl)-o-carboran-1-yl}pentan-1-yl]thymidine [Compound N5-2OH]” as the substance, how does the “In vitro uptake in L929 TK (+) cells relative to L929 TK (−) cells” value read?
The value was 5-10 fold.
